Key:
[1] = system: BMP-7-induced HO model mice (C57BL/6); experiment: BMP-7-induced HO model mice
Text: MTOR s604 […]tt […]at […]
For X- ray images, mice were anesthetized with isoflurane (5% for induction, 2-3% for maintenance, Abbvie), immobilized and X-rayed using µFX-1000 (Fujifilm) or DX-50 (Faxitron Bioptics). µCT images were scanned using X-ray CT systems (inspeXio SMX-100CT, Shimadzu) and analyzed with TRI/3D-BON software (Ratoc System Engineering) according to the manufacturer's instructions. Four weeks after injection, the injected sites were harvested, fixed with 4% paraformaldehyde for 24 h, embedded in paraffin, and sectioned and stained […]
BMP-7-induced HO model mice. BMP -7 (2 µ g/mouse) was injected into the right gastrocnemius muscle of C57BL/6NJcl mice (6-8 weeks, male, CLEA Japan), and compounds were administered once a day, five times a week (intraperitoneal administration). Mice were analyzed 2 weeks after injection. […]

FOP-iMSCs = settings: TGF-β3 10 ng/mL, 7 days, 1 nM-1 µM
Text: (§1) Generation of ATDC5 stably expressing ACVR1. WT - or FOP-ACVR1 was inserted into doxycycline (Dox)- inducible vector KW111 (Woltjen et al., 2009), which enables us to easily produce stably expressing cell lines utilizing the piggyBac (PB) transposon system from the cabbage looper moth Trichoplusia ni (Ding et al., 2005) (KW111/WT-ACVR1 or KW111/FOP-ACVR1). KW111/WT-ACVR1 or KW111/FOP-ACVR1 and PBaseII plasmid (PB transposase expression vector) ( Matsui et al., 2014 ) were co-transfected into ATDC5 cells by FuGeneHD® (Promega) according to the manufacturer’s protocol, and the neomycin- resistant population (500 µg/mL) was selected. Further selection was performed by selecting a mCherry high positive population (< 5%) after six hours of Dox treatment, sorting it with fluorescent-activated cell sorting (FACS) using AriaII (BD) according to the manufacturer’s protocol, and designating it as ATDC5/WT-ACVR1 or ATDC5/FOP-ACVR1. […]
(§2) HTS campaign and follow-up screens. […] After 3 days incubation, Alkaline Phosphatase activity (ALP) or AlamarBlue activity was measured using Amplite™ Colorimetric Alkaline Phosphatase Assay Kit (AAT Bioquest) or alamarBlue® Cell Viability Reagent (Thermo Fisher Scientific) according to the manufacturer’s protocol, respectively. T h e absorbance at 400 nm (Abs for ALP) or Relative Fluorescent Unit of Ex560/Em590 nm (RFU for AlamarBlue) was measured on POWERSCAN4 (DS Pharma Biomedical) or EnVision® Multilabel Reader (PerkinElmer).
(§3) Inhibitory effects of the screened compounds are given as percent inhibition, which was calculated using the following equation: (1-([Abs of compound] - [Abs of Min])/([Abs of Max] - [Abs of Min]))× 100, where [Abs of Max] and [Abs of Min] are the mean Abs of DMSO control and 1 µM DMH-1, respectively. The Z’ factor, which is widely used as a measure of the assay quality of each plate, was calculated using the following equation: Z’ factor = 1 - 3 × ([SD of Max] + [SD of Min])/([Abs of Max] - [Abs of Min]) (SI Appendix, Fig. […]

resFOP-iMSCs = system: resFOP-iMSCs
Text: as §1, §2, §3

FC(F)(F)c1ccc(/C=C/c2nc(COc3ccc(CCCCn4ccnn4)cc3)co2)cc1 [TAK 165, mubritinib]
body weight change compared to vehicle group ([1]; i.p. for 2 weeks, n=5): No significant differences
BMP-7-induced HO (heterotopic bone volume) ([1]; i.p. once daily 5 times a week for 2 weeks): suppressed
# of HO (> 20 mm3): number of mice harboring HO ([1]; i.p. once daily 5 times a week for 2 weeks, N = 5): 1/5
chondrogenesis of FOP-iMSCs stimulated with TGF-β3 (GAG) (FOP-iMSCs): suppressed
chondrogenesis of resFOP-iMSCs stimulated with Activin-A (GAG) (resFOP-iMSCs; Activin-A 100 ng/mL, 7 days, 1 nM-1 µM): suppressed
effect on FOP cells versus normal cells (resFOP-iMSCs; FOP-iMSCs vs resFOP-iMSCs): stronger effects on FOP cells than on normal cells

Source: article PMC6235670, “An mTOR Signaling Modulator Suppressed Heterotopic Ossification of Fibrodysplasia Ossificans Progressiva” (Stem Cell Reports, 2018)
